Experimental data taken from US8871460B2, “Gamma-secretase modulatory compounds, methods for identifying same, and uses therefor” (Neurogenetic Pharmaceuticals, Inc., priority 2009, dated 2014).

Legend:
[1] = target: T1, APP holoenzyme (APP-Holo) (Homo sapiens, UniProt P05067, K670N/M671L); experiment: Compound 1-conjugated Affi-Gel resin pull-down from CHO-APPSwe whole-cell lysate, immunoblot; format: binding
T1 construct: expressed in transfected cells; host or cells: CHO (Chinese Hamster Ovary)
Description: (§1) Compound 1, which bears a primary amine, was conjugated to Affi-Gel 10 resin (BioRad #153-6046) according to manufacturer's instructions. Compound 1 was dissolved in DMSO to a final concentration of 15 mg/ml. One ml of compound was mixed with approximately 1 ml of resin previously equilibrated in isopropanol. The compound and resin were rotated at room temperature for approximately 3 hr, washed with DMSO and the remaining unreacted groups were blocked with ethanolamine. The efficiency of coupling was generally greater than 80%, as determined by LC-MS analysis, with approximately 10-15 μmol of compound per ml of resin final concentration.
Solubilized whole-cell lysates from CHO-APPSwe cells (Chinese Hamster Ovary cells expressing human APP^695 with the K670N/M671L “Swedish” mutation) were prepared in PLC buffer (20 mM Hepes pH 7.5, 1 mM EDTA, 150 mM NaCl, 1% Triton X-100, 0.2% Tween-20). Lysates were pre-cleared by incubating with 200 μl of blocked resin at 4° C. for 1 hr. The resin was pelleted and the resulting lysate was centrifuged at 13,000×g for 15 min to pellet any protein precipitates. One mg (approximately 2 mg/ml) of the pre-cleared whole cell lysate was incubated with 100 μl of either Compound 1-conjugated resin, or with unconjugated resin, for two hours at room temperature, with constant rotation. […]

[2] = target: GST-Pen2 (Homo sapiens, UniProt Q9NZ42); experiment: Compound 1-conjugated Affi-Gel resin binding of isolated protein, immunoblot; set-up: purchased Abnova Corp H00055851-PO1; details: elute lane, vs unconjugated resin
Description: (§2) Prior to assessing binding to Compound 1, the proteins used in the binding assay were characterized. Purified GST (Abnova Corp) and GST-Pen2 (Abnova Corp #H00055851-PO1) proteins were confirmed to react with anti-GST (Novagen #71097-3) and anti-Pen-2 (PNT2) antibodies on an immunoblot. […] To prepare purified Pen-2, about 1 μg of GST-Pen-2 was incubated with 4 μg of PreScission™ protease for 4 hr at 4° C. in Cleavage Buffer (50 mM Tris pH 7.4, 150 mM NaCl, 1 mM EDTA, 1% Triton X-100, 10% glycerol, 1 mg/ml phosphatidylcholine). Free GST and protease were removed by adding glutathione resin (Sigma #G4510) for 1 hr with rotation, and spinning down the resin. The supernatant, containing purified Pen-2, was collected.
(§3) Compound 1-conjugated and unconjugated Affi-Gel 10 resins were prepared essentially as described in Example 1. […]

[3] = test system: Pen-2; experiment: Compound 1-conjugated Affi-Gel resin pull-down from CHO-APPSwe whole-cell lysate, immunoblot; format: binding, Chinese Hamster
Description: as §1
(§4) Solubilized whole-cell lysates from CHO-APPSwe cells (Chinese Hamster Ovary cells expressing human APP^695 with the K670N/M671L “Swedish” mutation) were prepared in PLC buffer (20 mM Hepes pH 7.5, 1 mM EDTA, 150 mM NaCl, 1% Triton X-100, 0.2% Tween-20). Lysates were pre-cleared by incubating with 200 μl of blocked resin at 4° C. for 1 hr. The resin was pelleted and the resulting lysate was centrifuged at 13,000×g for 15 min to pellet any protein precipitates. One mg (approximately 2 mg/ml) of the pre-cleared whole cell lysate was incubated with 100 μl of either Compound 1-conjugated resin, or with unconjugated resin, for two hours at room temperature, with constant rotation. After incubation, the resin was pelleted at low speed and the supernatant (i.e. unbound proteins) collected. The resin was washed 3-5 times with 1 ml of PLC buffer. Bound proteins were eluted with 200-300 μl aliquots of SDS denaturing sample buffer (0.25 M Tris-HCl, pH 6.8; 5% (w/v) SDS; 0.05% bromophenol blue; 10% glycerol; 2.5% 2-mercaptoethanol). Equal volumes of whole cell lysate (WCL) and supernatant in SDS denaturing sample buffer, as well as eluates from each resin, were run in separate lanes on a 4-20% SDS-PAGE gel. The electrophoresed proteins were transferred to a nitrocellulose membrane (Invitrogen #LC2001) and immunoblotted with antibodies that specifically recognize either Pen-2 (PNT2; gift of Gopal Thinakaran, see Luo et al. (2003), J. Biol. Chem. 278:7850-7854), presenilin 1 N-terminal fragment (PS1-NTF; gift of Gopal Thinakaran), presenilin 1 C-terminal fragment (PS1-CTF; Calbiochem #529592), nicastrin (Nct; Sigma #N-1660), amyloid precursor protein (APP; antibody R8666, PCT publication WO 04/018997) or phopholipase C-gamma (PLCγ; Upstate #06-152).

[4] = test system: presenilin 1 N-terminal fragment (PS1-NTF); experiment: as above; format: binding, Chinese Hamster; details: some present in eluate, not substantially depleted from starting lysate
Description: as §1, §4

[5] = test system: presenilin 1 C-terminal fragment (PS1-CTF); experiment: as above; format: binding, Chinese Hamster
Description: as §1, §4

[6] = test system: nicastrin (Nct); experiment: as above; format: binding, Chinese Hamster
Description: as §1, §4

[7] = test system: phopholipase C-gamma (PLCγ); experiment: as above; format: binding, Chinese Hamster
Description: as §1, §4

[8] = target: T2, Pen-2 (Homo sapiens, UniProt Q9NZ42); experiment: Binding of Compound 1 to Pen-2 in lysates prepared from PS1-deficient cells
T2 construct: endogenous in cells; host or cells: PS1-deficient cells (not further described)

[9] = target: T3, GST (Schistosoma japonicum, UniProt P08515); experiment: Compound 1-conjugated Affi-Gel resin binding of isolated protein, immunoblot
T3 construct: purchased Abnova Corp
Description: as §2, §3

[10] = target: T4, Purified Pen-2 (Homo sapiens, UniProt Q9NZ42); experiment: as above; details: elute lane, vs unconjugated resin
T4 construct: GST (N, cleaved yes); purchased Abnova Corp H00055851-PO1
Description: as §2, §3

T1 sequence (P05067 other isoform, or with tags, fused parts or gaps K595N/M596L): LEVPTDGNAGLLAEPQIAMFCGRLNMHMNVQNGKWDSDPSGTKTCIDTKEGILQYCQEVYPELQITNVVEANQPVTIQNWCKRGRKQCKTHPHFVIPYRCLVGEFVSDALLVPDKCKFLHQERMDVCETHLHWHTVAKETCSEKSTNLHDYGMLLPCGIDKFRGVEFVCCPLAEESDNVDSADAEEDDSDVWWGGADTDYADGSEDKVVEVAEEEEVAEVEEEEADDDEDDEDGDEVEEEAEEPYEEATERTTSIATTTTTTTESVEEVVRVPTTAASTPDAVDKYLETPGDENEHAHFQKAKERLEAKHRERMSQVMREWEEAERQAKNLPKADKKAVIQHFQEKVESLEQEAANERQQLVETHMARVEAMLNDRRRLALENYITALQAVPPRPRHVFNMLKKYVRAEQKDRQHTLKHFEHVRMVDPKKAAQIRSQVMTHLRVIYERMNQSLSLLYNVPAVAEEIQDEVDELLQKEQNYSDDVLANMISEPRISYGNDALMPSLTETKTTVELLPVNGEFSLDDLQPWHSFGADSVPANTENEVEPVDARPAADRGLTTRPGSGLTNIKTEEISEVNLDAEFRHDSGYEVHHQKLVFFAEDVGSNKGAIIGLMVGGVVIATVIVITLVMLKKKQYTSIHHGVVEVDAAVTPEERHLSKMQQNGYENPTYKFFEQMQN
T3 sequence (P08515 whole entry): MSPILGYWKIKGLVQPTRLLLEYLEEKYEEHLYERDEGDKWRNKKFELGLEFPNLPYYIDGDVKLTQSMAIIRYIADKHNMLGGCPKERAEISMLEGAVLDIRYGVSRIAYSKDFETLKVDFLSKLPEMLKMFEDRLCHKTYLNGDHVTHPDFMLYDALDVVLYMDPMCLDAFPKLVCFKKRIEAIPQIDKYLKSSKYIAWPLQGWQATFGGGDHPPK
T4 sequence (Q9NZ42 whole entry): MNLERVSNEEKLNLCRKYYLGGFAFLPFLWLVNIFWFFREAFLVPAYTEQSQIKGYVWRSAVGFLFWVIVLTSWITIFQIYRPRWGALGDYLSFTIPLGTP
Chain of GST-Pen2 (Q9NZ42 whole entry): as above
T2 sequence (Q9NZ42 whole entry): as above

Cc1cn(-c2ccc(-c3csc(Nc4cc(C(C)C)c(OCCN)cc4C)n3)cc2F)cn1 [Compound 1]
binding of APP-Holo to Compound 1-conjugated resin [1]: did not bind
binding of GST-Pen-2 to Compound 1-conjugated resin [2]: selectively bind
depletion of Pen-2 from whole cell lysate applied to the Compound 1-conjugated column [3]: substantially depleted
Pen-2 in SDS eluate from resin ([3]; Compound 1-conjugated vs unconjugated Affi-Gel 10 resin, 2 h room temperature): present in the SDS eluate from the Compound 1-conjugated resin, but not from the unconjugated resin
binding of N-terminal fragment (NTF) of PS1 to Compound 1 [4]: minimal binding
binding of PS1-CTF to Compound 1-conjugated resin [5]: did not bind
binding of Nct to Compound 1-conjugated resin [6]: did not bind
binding of PLCγ to Compound 1-conjugated resin [7]: did not bind
binding to Pen-2 present in lysates prepared from PS1-deficient cells [8]: demonstrated binding
binding of GST to Compound 1 resin [9]: did not bind
binding of purified Pen-2 to Compound 1-conjugated resin [10]: selectively bind
